The text below walks through data of patent US20240246942A1, “KINASE INHIBITORS FOR THE TREATMENT OF NEURODEGENERATIVE DISEASES” (priority 2020, published 2024).

Like-named read-outs stand apart in the source and are kept apart here.

Test in all cases: biochemical
For test [1], the target named is T1, panel of 374 wild-type kinases (Homo sapiens, UniProt P17948).
T1 construct: purchased Reaction Biology Corporation
Conditions: read-out: % Enzyme Activity (relative to DMSO controls), FLT1/VEGFR1.

Test [2] concerns the target T2, panel of 374 wild-type kinases (Homo sapiens, UniProt P11802).
T2 construct: purchased Reaction Biology Corporation

The target in test [3] is T3, panel of 374 wild-type kinases (Homo sapiens, UniProt P15056).
T3 construct: purchased Reaction Biology Corporation
Conditions: read-out: % Enzyme Activity (relative to DMSO controls), BRAF.

Test [4] has as its target T4, panel of 374 wild-type kinases (Homo sapiens, UniProt Q9NWZ3).
T4 construct: purchased Reaction Biology Corporation
T4 sequence (Q9NWZ3 1-460): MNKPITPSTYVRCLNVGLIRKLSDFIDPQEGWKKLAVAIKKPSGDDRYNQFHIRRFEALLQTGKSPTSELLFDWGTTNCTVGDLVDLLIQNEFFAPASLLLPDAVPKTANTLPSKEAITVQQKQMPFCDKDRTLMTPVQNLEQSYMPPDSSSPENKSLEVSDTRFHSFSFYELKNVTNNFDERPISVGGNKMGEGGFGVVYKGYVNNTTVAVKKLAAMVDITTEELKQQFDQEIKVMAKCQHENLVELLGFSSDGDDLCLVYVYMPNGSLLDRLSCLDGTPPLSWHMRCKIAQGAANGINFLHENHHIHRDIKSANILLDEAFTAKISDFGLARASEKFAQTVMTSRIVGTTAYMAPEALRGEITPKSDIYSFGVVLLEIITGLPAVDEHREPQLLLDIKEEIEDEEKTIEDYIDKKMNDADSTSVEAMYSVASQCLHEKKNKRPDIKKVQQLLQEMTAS
Conditions: read-out: % Enzyme Activity (relative to DMSO controls), IRAK4.

Test [5] addresses T5, panel of 374 wild-type kinases (Homo sapiens, UniProt Q6P5Z2).
T5 construct: purchased Reaction Biology Corporation
The note with it: read-out: % Enzyme Activity (relative to DMSO controls), kinase PKN3/PRK3.

In test [6] the target is T6, panel of 374 wild-type kinases (Homo sapiens, UniProt Q8WTQ7).
T6 construct: purchased Reaction Biology Corporation
T6 sequence (Q8WTQ7 1-553): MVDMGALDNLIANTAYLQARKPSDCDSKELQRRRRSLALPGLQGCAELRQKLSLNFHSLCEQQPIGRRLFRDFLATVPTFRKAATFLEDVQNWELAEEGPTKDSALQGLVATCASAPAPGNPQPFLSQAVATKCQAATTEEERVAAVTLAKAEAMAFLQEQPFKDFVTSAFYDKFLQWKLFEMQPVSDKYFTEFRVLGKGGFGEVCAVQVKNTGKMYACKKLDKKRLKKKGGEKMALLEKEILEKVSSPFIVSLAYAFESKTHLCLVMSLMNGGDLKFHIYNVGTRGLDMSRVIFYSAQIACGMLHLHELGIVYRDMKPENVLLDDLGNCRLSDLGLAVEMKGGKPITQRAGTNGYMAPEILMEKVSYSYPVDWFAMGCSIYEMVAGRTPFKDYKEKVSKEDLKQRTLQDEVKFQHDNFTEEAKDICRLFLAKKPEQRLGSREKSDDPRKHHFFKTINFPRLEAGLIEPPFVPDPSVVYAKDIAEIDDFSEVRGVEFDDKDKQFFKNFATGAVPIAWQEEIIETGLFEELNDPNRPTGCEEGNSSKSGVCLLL
The note with it: for remaining activity at 5 µM: read-out: % Enzyme Activity (relative to DMSO controls), GRK7.

The target of test [7] is T7, panel of 374 wild-type kinases (Homo sapiens, UniProt O15075).
T7 construct: purchased Reaction Biology Corporation
T7 sequence (O15075 1-740): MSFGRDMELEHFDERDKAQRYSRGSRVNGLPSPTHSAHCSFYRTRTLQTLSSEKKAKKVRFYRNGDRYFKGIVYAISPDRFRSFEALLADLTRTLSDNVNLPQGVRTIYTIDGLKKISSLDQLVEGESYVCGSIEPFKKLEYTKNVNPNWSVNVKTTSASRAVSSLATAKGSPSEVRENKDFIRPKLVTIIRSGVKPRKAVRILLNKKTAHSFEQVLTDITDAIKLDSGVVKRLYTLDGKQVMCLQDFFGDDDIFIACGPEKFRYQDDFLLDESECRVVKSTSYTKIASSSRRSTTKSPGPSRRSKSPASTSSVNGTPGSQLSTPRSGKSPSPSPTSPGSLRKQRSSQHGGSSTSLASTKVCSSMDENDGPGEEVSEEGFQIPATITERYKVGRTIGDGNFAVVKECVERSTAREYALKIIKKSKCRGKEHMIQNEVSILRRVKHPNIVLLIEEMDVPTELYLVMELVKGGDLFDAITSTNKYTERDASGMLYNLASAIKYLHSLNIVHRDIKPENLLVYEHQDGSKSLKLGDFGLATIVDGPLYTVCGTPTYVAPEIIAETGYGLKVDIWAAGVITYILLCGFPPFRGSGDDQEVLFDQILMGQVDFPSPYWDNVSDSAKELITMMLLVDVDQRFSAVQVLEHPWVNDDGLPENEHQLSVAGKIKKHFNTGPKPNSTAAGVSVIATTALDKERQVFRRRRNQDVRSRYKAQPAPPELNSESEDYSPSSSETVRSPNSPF
The note with it: read-out: % Enzyme Activity (relative to DMSO controls), DCAMKL1.

[8] abbreviates: read-out: % Enzyme Activity (relative to DMSO controls), CDK4/cyclin D1.
Setting [9] is: read-out: % Enzyme Activity (relative to DMSO controls), CDK4/cyclin D3.

T5 sequence (Q6P5Z2 whole entry): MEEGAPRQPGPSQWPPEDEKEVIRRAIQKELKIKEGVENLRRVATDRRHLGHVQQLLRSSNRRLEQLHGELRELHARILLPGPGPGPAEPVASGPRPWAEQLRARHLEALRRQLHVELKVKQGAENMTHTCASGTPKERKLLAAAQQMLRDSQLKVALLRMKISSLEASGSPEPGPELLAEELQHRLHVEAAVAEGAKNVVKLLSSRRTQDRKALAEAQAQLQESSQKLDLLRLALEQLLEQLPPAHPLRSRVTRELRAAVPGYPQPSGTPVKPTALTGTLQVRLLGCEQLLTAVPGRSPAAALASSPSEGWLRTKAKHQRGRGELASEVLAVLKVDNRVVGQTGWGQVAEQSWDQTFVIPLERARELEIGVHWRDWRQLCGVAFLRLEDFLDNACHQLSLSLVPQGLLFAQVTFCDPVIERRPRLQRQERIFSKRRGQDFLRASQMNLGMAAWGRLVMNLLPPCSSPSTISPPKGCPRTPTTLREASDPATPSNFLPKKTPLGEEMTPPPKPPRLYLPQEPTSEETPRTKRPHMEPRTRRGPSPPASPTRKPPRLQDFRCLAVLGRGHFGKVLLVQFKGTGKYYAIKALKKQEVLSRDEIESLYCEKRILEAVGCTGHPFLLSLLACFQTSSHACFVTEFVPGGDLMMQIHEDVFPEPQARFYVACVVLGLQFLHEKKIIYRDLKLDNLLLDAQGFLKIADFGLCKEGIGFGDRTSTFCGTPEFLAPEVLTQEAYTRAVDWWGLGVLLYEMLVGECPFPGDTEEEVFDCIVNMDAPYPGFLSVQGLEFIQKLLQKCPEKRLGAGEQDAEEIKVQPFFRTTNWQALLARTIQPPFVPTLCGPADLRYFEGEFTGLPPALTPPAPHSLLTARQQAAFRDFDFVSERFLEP
T1 sequence (P17948 27-1338): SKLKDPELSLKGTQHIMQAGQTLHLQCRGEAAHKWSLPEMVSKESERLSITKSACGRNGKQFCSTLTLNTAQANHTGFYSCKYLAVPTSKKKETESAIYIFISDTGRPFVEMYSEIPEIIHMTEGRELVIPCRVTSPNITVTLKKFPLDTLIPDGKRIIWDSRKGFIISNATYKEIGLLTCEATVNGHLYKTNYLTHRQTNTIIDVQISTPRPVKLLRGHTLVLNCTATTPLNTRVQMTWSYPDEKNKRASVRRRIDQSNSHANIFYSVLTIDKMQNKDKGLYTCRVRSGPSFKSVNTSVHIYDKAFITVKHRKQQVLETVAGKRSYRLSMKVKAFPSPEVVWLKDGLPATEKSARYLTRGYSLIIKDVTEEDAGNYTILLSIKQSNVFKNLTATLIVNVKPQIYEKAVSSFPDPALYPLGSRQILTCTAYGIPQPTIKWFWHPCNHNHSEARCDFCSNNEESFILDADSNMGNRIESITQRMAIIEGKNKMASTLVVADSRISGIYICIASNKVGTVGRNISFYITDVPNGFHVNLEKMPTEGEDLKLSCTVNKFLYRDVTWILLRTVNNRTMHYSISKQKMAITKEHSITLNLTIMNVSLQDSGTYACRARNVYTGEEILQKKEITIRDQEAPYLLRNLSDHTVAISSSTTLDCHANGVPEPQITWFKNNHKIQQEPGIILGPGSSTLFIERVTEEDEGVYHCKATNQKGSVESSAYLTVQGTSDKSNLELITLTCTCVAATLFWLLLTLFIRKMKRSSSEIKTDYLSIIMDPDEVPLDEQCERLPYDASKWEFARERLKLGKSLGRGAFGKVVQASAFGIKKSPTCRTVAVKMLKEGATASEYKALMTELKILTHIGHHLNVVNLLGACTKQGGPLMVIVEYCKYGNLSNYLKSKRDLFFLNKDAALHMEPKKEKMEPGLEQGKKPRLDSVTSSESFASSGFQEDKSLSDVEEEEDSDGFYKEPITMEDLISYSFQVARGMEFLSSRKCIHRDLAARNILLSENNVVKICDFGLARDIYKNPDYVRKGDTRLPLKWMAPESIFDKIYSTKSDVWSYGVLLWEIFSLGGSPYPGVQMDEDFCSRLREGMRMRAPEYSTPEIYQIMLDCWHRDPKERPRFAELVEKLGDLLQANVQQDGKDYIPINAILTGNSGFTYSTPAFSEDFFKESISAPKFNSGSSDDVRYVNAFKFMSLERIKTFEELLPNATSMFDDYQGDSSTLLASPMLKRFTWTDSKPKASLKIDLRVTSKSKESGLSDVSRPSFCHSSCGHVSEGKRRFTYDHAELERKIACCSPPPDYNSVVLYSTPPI
T2 sequence (P11802 whole entry): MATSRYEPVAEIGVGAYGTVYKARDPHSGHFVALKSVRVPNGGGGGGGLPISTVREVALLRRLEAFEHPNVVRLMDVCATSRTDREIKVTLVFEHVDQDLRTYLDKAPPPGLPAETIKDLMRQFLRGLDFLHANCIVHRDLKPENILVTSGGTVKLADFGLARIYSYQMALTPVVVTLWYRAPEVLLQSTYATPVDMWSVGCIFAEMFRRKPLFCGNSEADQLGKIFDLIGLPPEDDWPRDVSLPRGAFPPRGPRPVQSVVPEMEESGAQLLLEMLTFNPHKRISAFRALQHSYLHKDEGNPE
T3 sequence (P15056 whole entry): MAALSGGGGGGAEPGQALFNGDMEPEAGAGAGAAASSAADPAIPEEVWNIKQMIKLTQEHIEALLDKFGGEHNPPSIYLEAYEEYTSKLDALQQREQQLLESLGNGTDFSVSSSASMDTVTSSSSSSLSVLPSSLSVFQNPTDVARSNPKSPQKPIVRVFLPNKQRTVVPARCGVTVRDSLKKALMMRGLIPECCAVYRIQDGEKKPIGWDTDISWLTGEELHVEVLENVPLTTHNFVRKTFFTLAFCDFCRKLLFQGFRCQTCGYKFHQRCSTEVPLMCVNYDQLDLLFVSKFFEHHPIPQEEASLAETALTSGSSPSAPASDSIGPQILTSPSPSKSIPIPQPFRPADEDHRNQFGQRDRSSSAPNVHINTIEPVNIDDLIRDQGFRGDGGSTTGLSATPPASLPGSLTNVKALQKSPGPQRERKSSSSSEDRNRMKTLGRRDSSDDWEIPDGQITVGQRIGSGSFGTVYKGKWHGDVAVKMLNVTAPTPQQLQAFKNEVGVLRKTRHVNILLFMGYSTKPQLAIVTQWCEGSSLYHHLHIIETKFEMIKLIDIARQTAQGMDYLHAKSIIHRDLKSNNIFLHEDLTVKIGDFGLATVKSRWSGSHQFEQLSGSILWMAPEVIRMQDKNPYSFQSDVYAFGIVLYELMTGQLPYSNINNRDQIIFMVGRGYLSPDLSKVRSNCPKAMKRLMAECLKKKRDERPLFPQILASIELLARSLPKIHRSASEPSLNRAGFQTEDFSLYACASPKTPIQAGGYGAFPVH

`O=C(Nc1cnn(-c2csc(C(=O)NC3COC3)c2)c1)Nc1ccccc1Cl` [Compound 17, 4-(4-(3-(2-chlorophenyl)ureido)-1H-pyrazol-1-yl)-N-(oxetan-3-yl)thiophene-2-carboxamide]: the remaining activity at 5 µM in test [1] worked out at 101%; in test [2] (setting [8]), 92.2%; in test [2] (setting [9]) it was 98.2%; in test [3] it was 93.3%; in test [4] it was 92.1%; in test [5], 92.5%. Further, the remaining activity at 5 µM in test [6] came out at 96.4%; in test [7], 99.2%.
As for `O=C(Nc1cnn(-c2csc(C(=O)NC3COC3)c2)c1)Nc1c(F)cccc1Cl` [Compound 25, 4-(4-(3-(2-chloro-6-fluorophenyl)ureido)-1H-pyrazol-1-yl)-N-(oxetan-3-yl)thiophene-2-carboxamide], the remaining activity at 5 µM in test [1] came out at 86.1%; in test [2] (setting [8]), 90.3%; in test [2] (setting [9]), 79.4%; in test [3], 99.9%; in test [4], 97.8%; in test [5], 76.2%. The remaining activity at 5 µM in test [6] was determined as 94%; in test [7] it was 84.2%.
As to `Cc1sc(C(=O)NC2COC2)cc1-n1cc(NC(=O)Nc2c(F)cccc2Cl)cn1` [Compound 27, 4-(4-(3-(2-chloro-6-fluorophenyl)ureido)-1H-pyrazol-1-yl)-5-methyl-N-(oxetan-3-yl)thiophene-2-carboxamide], the remaining activity at 10 µM in test [1] (10 uM) was found to be 84.1%; in test [2] (setting [8]), 78%; in test [2] (setting [9]), 96.5%; in test [3] (10 uM) it was 105%; in test [4] (10 uM), 103%; in test [5] (10 uM), 98.6%. The remaining activity at 10 µM is 98.3% in test [6] (GRK7, 10 uM, read-out: % Enzyme Activity (relative to DMSO controls)) and 67.2% in test [7] (10 uM).
